System: messenger for the SPARC protein in the adipose tissue
Assay: expression of the messenger for the SPARC protein in adipose tissue after insulin injection
Assay type: in vivo
Conditions: injected into mice

## insulin
  expression of the messenger for the SPARC protein in the adipose tissue: increases the expression of the messenger for the SPARC protein

— patent US20040049799A1, “Method for screening agents capable of treating obesity” (priority 2000, published 2004)
